Results as given in patent US11535621B2, “Heterobicyclic amides as inhibitors of CD38” (Ribon Therapeutics, Inc., priority 2019, dated 2022).
pIC50: −log10 of the molar value.

Each compound was assayed against Human CD38 (Homo sapiens (Human), UniProt P28907) (assay: CD38 enzyme assay). Conditions: 2 nM CD38, NAD+ substrate, absorbance at 405 nm.
Format: biochemical
Summary of the method: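 IC50 values come from fitting % inhibition against compound concentration with a 4-parameter logistic, or a 3-parameter fit with top/bottom fixed at 100/0 or Hill at 1. Inhibition is scaled between DMSO wells and positive-control wells treated with a quinolinone CD38 inhibitor.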

Human CD38, sequence (P28907 whole entry): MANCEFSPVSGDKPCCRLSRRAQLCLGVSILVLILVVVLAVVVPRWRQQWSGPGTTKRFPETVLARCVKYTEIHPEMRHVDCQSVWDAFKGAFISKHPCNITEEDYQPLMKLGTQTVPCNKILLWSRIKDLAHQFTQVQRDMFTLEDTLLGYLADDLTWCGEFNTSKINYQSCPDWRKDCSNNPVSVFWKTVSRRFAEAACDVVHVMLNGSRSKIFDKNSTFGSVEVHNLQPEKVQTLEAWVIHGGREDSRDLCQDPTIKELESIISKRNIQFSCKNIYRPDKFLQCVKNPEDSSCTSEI

| Structure (SMILES) | pIC50 |
| --- | --- |
| O=C(NCc1c(F)cccc1C(F)(F)F)c1nc(-n2ccnc2)nc2cc[nH]c12 [Example 51, N-(2-Fluoro-6-(trifluoromethyl)benzyl)-2-(1H-imidazol-1-yl)-5H-pyrrolo[3,2-d]pyrimidine-4-carboxamide] | 7.00 to 8.00 |
| O=C(Nc1cccc(Cl)n1)c1nc(-n2ccnc2)nc2cc[nH]c12 [Example 144] | > 8.00 |
| CNC(=O)CO[C@H]1CC[C@H](NC(=O)c2nc(-n3ccnc3)nc3cc[nH]c23)CC1 [Example 80, 2-(1H-Imidazol-1-yl)-N-((1r,4r)-4-(2-(methylamino)-2-oxoethoxy)cyclohexyl)-5H-pyrrolo[3,2-d]pyrimidine-4-carboxamide] | 7.00 to 8.00 |
| CO[C@]1(C)CC[C@H](NC(=O)c2nc(-n3ccnc3)nc3cc[nH]c23)CC1 [Example 128b, 2-(1H-imidazol-1-yl)-N-((1s,4s)-4-methoxy-4-methylcyclohexyl)-5H-pyrrolo[3,2-d]pyrimidine-4-carboxamide] | 7.00 to 8.00 |
| CC(=O)N1Cc2ccc(NC(=O)c3nc(-n4ccnc4)cc4cn[nH]c34)cc2C1 [Example 237, N-(2-acetylisoindolin-5-yl)-5-(1H-imidazol-1-yl)-1H-pyrazolo[3,4-c]pyridine-7-carboxamide] | > 8.00 |
| O=C(N[C@@H]1CCNC[C@@H]1F)c1nc(-n2ccnc2)nc2cc[nH]c12 [Example 123a, N-((3S,4R)-3-fluoropiperidin-4-yl)-2-(1H-imidazol-1-yl)-5H-pyrrolo[3,2-d]pyrimidine-4-carboxamide] | 7.00 to 8.00 |
| O=C(N[C@@H]1CCCOC1)c1nc(-n2ccnc2)nc2cc[nH]c12 (single isomer, unassigned) [Example 28b] | > 8.00 |
| O=C(N[C@H]1CC[C@H](C(F)(F)F)CC1)c1nc(-n2ccnc2)nc2ccsc12 [Example 121, 2-(1H-imidazol-1-yl)-N-((1r,4r)-4-(trifluoromethyl)cyclohexyl)thieno[3,2-d]pyrimidine-4-carboxamide] | > 8.00 |
| CNC(=O)[C@H]1CC[C@H](NC(=O)c2nc(-n3ccnc3)cc3cn[nH]c23)CC1 [Example 217, 5-(1H-imidazol-1-yl)-N-((1r,4r)-4-(methylcarbamoyl)cyclohexyl)-1H-pyrazolo[3,4-c]pyridine-7-carboxamide] | > 8.00 |
| COCCN[C@H]1CC[C@H](NC(=O)c2nc(-n3ccnc3)nc3cc[nH]c23)CC1 [Example 56, 2-(1H-Imidazol-1-yl)-N-((1r,4r)-4-((2-methoxyethyl)amino)cyclohexyl)-5H-pyrrolo[3,2-d]pyrimidine-4-carboxamide] | 7.00 to 8.00 |
| COCCO[C@H]1CC[C@H](NC(=O)c2nc(-n3ccnc3)nc3c(C)c[nH]c23)CC1 [Example 268, 2-(1H-imidazol-1-yl)-N-((1r,4r)-4-(2-methoxyethoxy)cyclohexyl)-7-methyl-5H-pyrrolo[3,2-d]pyrimidine-4-carboxamide] | 7.00 to 8.00 |
| O=C(NC1CCCC1)c1nc(-n2ccnc2)nc2cc[nH]c12 [Example 90, N-Cyclopentyl-2-(1H-imidazol-1-yl)-5H-pyrrolo[3,2-d]pyrimidine-4-carboxamide] | > 8.00 |
| O=C(N[C@H]1CCCOC1)c1nc(-n2ccnc2)nc2cc[nH]c12 (single isomer, unassigned) [Example 28a] | 7.00 to 8.00 |
| N#Cc1ccc(NC(=O)c2nc(-n3ccnc3)nc3cc[nH]c23)cc1 [Example 130] | > 8.00 |
| C[C@H](O)COC1CCC(NC(=O)c2nc(-n3ccnc3)nc3cc[nH]c23)CC1 (stereo partly drawn) [Example 125b, N-((1R,4r)-4-((S)-2-hydroxypropoxy)cyclohexyl)-2-(1H-imidazol-1-yl)-5H-pyrrolo[3,2-d]pyrimidine-4-carboxamide] | 7.00 to 8.00 |
| O=C(NCc1c(F)cccc1C(F)(F)F)c1nc(-c2cncs2)nc2cc[nH]c12 [Example 43, N-(2-Fluoro-6-(trifluoromethyl)benzyl)-2-(thiazol-5-yl)-5H-pyrrolo[3,2-d]pyrimidine-4-carboxamide] | 6.00 to 7.00 |

| Structure (SMILES) | pIC50 |
| --- | --- |
| CN(C)CCOc1ccc(NC(=O)c2nc(-n3ccnc3)nc3cc[nH]c23)nc1 [Example 129] | 7.00 to 8.00 |
| CC1(C#N)CN([C@H]2CC[C@@H](NC(=O)c3nc(-n4ccnc4)cc4cn[nH]c34)CC2)C1 [Example 259, N-((1s,4s)-4-(3-cyano-3-methylazetidin-1-yl)cyclohexyl)-5-(1H-imidazol-1-yl)-1H-pyrazolo[3,4-c]pyridine-7-carboxamide] | 6.00 to 7.00 |
| COCn1cc(NC(=O)c2nc(-n3ccnc3)nc3cc[nH]c23)cn1 [Example 132] | > 8.00 |
| CN1CCC(NC(=O)c2nc(-n3ccnc3)nc3cc[nH]c23)C1 (stereo not shown) [Example 74, 2-(1H-Imidazol-1-yl)-N-(1-methylpyrrolidin-3-yl)-5H-pyrrolo[3,2-d]pyrimidine-4-carboxamide] | 6.00 to 7.00 |
| O=C(Nc1ccc(C(F)(F)F)nc1)c1nc(-n2ccnc2)cc2cn[nH]c12 [Example 229, 5-(1H-imidazol-1-yl)-N-(6-(trifluoromethyl)pyridin-3-yl)-1H-pyrazolo[3,4-c]pyridine-7-carboxamide] | > 8.00 |
| COCCOc1ncc(NC(=O)c2nc(-n3ccnc3)nc3cc[nH]c23)cn1 [Example 165] | 7.00 to 8.00 |
| O=C(NCc1c(F)cccc1C(F)(F)F)c1nc(-n2ccnc2)cc2cn[nH]c12 [Example 48, N-(2-Fluoro-6-(trifluoromethyl)benzyl)-5-(1H-imidazol-1-yl)-1H-pyrazolo[3,4-c]pyridine-7-carboxamide] | 7.00 to 8.00 |
| CN(CC(F)(F)F)[C@H]1CC[C@H](NC(=O)c2nc(-n3ccnc3)nc3cc[nH]c23)CC1 [Example 112, 2-(1H-imidazol-1-yl)-N-((1r,4r)-4-(methyl(2,2,2-trifluoroethyl)amino)cyclohexyl)-5H-pyrrolo[3,2-d]pyrimidine-4-carboxamide] | 7.00 to 8.00 |
| O=C(NC1CCC(F)(F)CC1)c1nc(-n2ccnc2)nc2nc[nH]c12 [Example 152] | 7.00 to 8.00 |
| N#CCO[C@H]1CC[C@H](NC(=O)c2nc(-n3ccnc3)cc3cn[nH]c23)CC1 [Example 215, N-((1r,4r)-4-(cyanomethoxy)cyclohexyl)-5-(1H-imidazol-1-yl)-1H-pyrazolo[3,4-c]pyridine-7-carboxamide] | > 8.00 |
| COCCO[C@H]1CC[C@H](NC(=O)c2nc(-n3ccnc3)cc3nc[nH]c23)CC1 [Example 26, 6-(1H-Imidazol-1-yl)-N-((1r,4r)-4-(2-methoxyethoxy)cyclohexyl)-3H-imidazo[4,5-c]pyridine-4-carboxamide] | 7.00 to 8.00 |
| CN(CC(F)(F)F)[C@H]1CC[C@H](NC(=O)c2nc(-n3ccnc3)cc3cn[nH]c23)CC1 [Example 218, 5-(1H-imidazol-1-yl)-N-((1r,4r)-4-(methyl(2,2,2-trifluoroethyl)amino)cyclohexyl)-1H-pyrazolo[3,4-c]pyridine-7-carboxamide] | 7.00 to 8.00 |
| COCCO[C@H]1CC[C@H](NC(=O)c2nc(-n3ccnc3)nc3ccn(C)c23)CC1 [Example 22, 2-(1H-Imidazol-1-yl)-N-((1r,4r)-4-(2-methoxyethoxy)cyclohexyl)-5-methyl-5H-pyrrolo[3,2-d]pyrimidine-4-carboxamide] | 7.00 to 8.00 |
| CN(C)C(=O)CO[C@H]1CC[C@H](NC(=O)c2nc(-n3ccnc3)nc3cc[nH]c23)CC1 [Example 146] | 7.00 to 8.00 |
| O=C(N[C@H]1CC[C@H](CCO)CC1)c1nc(-n2ccnc2)nc2cc[nH]c12 [Example 200, N-((1r,4r)-4-(2-hydroxyethyl)cyclohexyl)-2-(1H-imidazol-1-yl)-5H-pyrrolo[3,2-d]pyrimidine-4-carboxamide] | > 8.00 |
